Test results as given in patent publication US12383608B2, “WT1 helper peptides and combinations of WT1 helper peptide and conjugate of cancer antigen peptides” (Sumitomo Pharma Co., Ltd., priority 2016, dated 2025).

System: HLA-A*02:01 transgenic mouse (C57BL/6CrHLA-A2.1DR1)
Experiment: In vivo CTL induction in HLA-A*02:01 transgenic mouse (IFNγ ELISPOT assay on splenocytes)
Conditions: Montanide ISA 51 VG, intradermal; for Effect of the cocktail vaccine comprising the peptide on the CTL induction by the compound of formula (4): cocktail vaccine: helper peptide (170-315 μg per site) + compound of formula (4) (250 μg per site), molar ratio 1:1.13-1.15 or equimolar, compared with compound of formula (4) alone; for CTL induction by the cocktail vaccine comprising the peptide in addition to the compound of formula (4) (increase in number of CTLs): cocktail vaccine: helper peptide + compound of formula (4), compared with the vaccine comprising the compound of formula (4)
Description: The HLA-A*02:01 transgenic mouse (C57BL/6CrHLA-A2.1DR1) lacks mouse MHC, and instead expresses a chimeric IILA of a human MHC, HLA-A*02:01 with a mouse MHC, H-2Db, and HLA-DRB1*01:01.
The solution was diluted with water for injection to a concentration of 10 mg/ml, and then converted to an emulsion by addition of an equal volume of Montanide ISA 51 VG. […] One week after the administration, the mice were sacrificed with CO2 gas. Splenocytes were harvested from spleens removed from the mice. For detecting IFNγ-producing splenocytes, an IFNγ ELISPOT assay kit was used. In particular, an ELISPOT plate was treated with an anti-mouse-IFNγ antibody on the day before preparation of the splenocyte samples. On the next day, the plate was blocked by treatment with an RPMI 1640 medium with 10% FBS. To the blocked ELISPOT plate, the splenocyte samples from the HLA-A*02:01 transgenic mice were added at 1.25×10^5 cells/well. For in vitro stimulation of the cells, the peptide of SEQ ID NO: 15 was dissolved in DMSO at a concentration of 40 mg/ml, diluted with RPMI 1640 with 10% FBS to 40 μg/ml, and added to the splenocyte-containing wells at a final concentration of 10 μg/ml. The plate was incubated for 17 hours at 37° C. under an atmosphere of 5% CO2. Then, after removal of the culture medium from the wells, the ELISPOT plate was subjected to treatment for cell staining in accordance with the manufacturer's protocol. Stained spots were counted on ImmunoSpot Analyzer (C.T.L.).
The scale on the vertical axis of the graph of FIG. 1 indicates the number of cells (CTLs) which produced IFNγ in response to the stimulation with the peptide of SEQ ID NO: 15. The compound and the peptide administered to the mice are described under the bars. […] Therefore, effect of each vaccine in CTL induction is known from the difference in cell count between the black bar and the white bar. When no IFNγ is produced by cells in the absence of the stimulation with SEQ ID NO: 15, a white bar cannot have a height.
The solution was diluted with water for injection to a concentration of 10 mg/ml, and then converted to an emulsion by addition of an equal volume of Montanide ISA 51 VC.
(§1) The solution was diluted with water for injection to a concentration of 10 mg/ml, and then converted to an emulsion by addition of an equal volume of Montanide ISA 51 VG.
as §1, §1, §1, §1, §1, §1, §1, §1, §1

Sequence	Effect of the cocktail vaccine comprising the peptide on the CTL induction by the compound of formula (4)	CTL induction by the cocktail vaccine comprising the peptide in addition to the compound of formula (4) (increase in number of CTLs)
AYPGCNKRYFKLSHL [SEQ ID NO: 2]	enhanced	highly effective in CTL induction
AYPGCNKRYFKLSHLQMH [SEQ ID NO: 43]	enhanced	highly effective in CTL induction
AYPGCNKRYFKLSHLQMHSRK [SEQ ID NO: 44]	enhanced	highly effective in CTL induction
CNKRYFKLSHLQMHSRK [SEQ ID NO: 7, reference compound]	enhanced	highly effective in CTL induction
FKLSHLQMHSRKHTG [SEQ ID NO: 13]	enhanced	highly effective in CTL induction
GCNKRYFKLSHL [SEQ ID NO: 46]	enhanced	highly effective in CTL induction
GCNKRYFKLSHLQMHSRK [SEQ ID NO: 6]	enhanced	highly effective in CTL induction
KLSHLQMHSRKHTGE [SEQ ID NO: 14]	enhanced	highly effective in CTL induction
KRYFKLSHLQMHSRK [SEQ ID NO: 9]	enhanced	highly effective in CTL induction
KRYFKLSHLQMHSRKH [SEQ ID NO: 10, reference compound]	enhanced	highly effective in CTL induction
NKRYFKLSHLQMHSRK [SEQ ID NO: 8]	enhanced	highly effective in CTL induction
PGCNKRYFKLSHLQMHSRK [SEQ ID NO: 5]	enhanced	highly effective in CTL induction
PGCNKRYFKLSHLQMHSRKHTG [SEQ ID NO: 4, reference compound]	enhanced	highly effective in CTL induction
RYFKLSHLQMH [SEQ ID NO: 45]	enhanced	highly effective in CTL induction
RYFKLSHLQMHSRK [SEQ ID NO: 39]	enhanced	highly effective in CTL induction
RYFKLSHLQMHSRKH [SEQ ID NO: 11]	enhanced	highly effective in CTL induction
RYFKLSHLQMHSRKHT [SEQ ID NO: 48]	enhanced	highly effective in CTL induction
RYFKLSHLQMHSRKHTGE [SEQ ID NO: 49]	enhanced	highly effective in CTL induction
YFKLSHLQMHSRKHT [SEQ ID NO: 12]	enhanced	highly effective in CTL induction
YPGCNKRYFKLSHLQ [SEQ ID NO: 3]	enhanced	highly effective in CTL induction
